# Measured values taken from US10919893B2, “Process for the preparation of crystalline form C of avibactam sodium” (Sandoz AG, priority 2017, dated 2021).
# Where a name gives a salt, the structure may show the parent alone.
# Key:
# bacteria = details: at clinically relevant doses; cited from earlier work
# [1] = solid-state stability of avibactam forms against moisture, temperature stress and storage; format: physicochemical
# [2] = cited from earlier work
smiles,measurement,setting,value
"NC(=O)[C@@H]1CC[C@@H]2CN1C(=O)N2OS(=O)(=O)O [Avibactam, [(2S,5R)-2-carbamoyl-7-oxo-1,6-diazabicylco[3.2.1]octan-6-yl] hydrogen sulfate]",antibacterial activity in itself,bacteria,no antibacterial activity
"NC(=O)[C@@H]1CC[C@@H]2CN1C(=O)N2OS(=O)(=O)O [form A, avibactam sodium]",behaviour upon further temperature stress,[1],dehydrates to the anhydrous form B
"NC(=O)[C@@H]1CC[C@@H]2CN1C(=O)N2OS(=O)(=O)O [form C, avibactam sodium]",polymorphic stability (conversion to other crystalline forms),[2]; ambient conditions and conditions of manufacturing of solid pharmaceutical dosage forms,does not convert to other crystalline forms
"NC(=O)[C@@H]1CC[C@@H]2CN1C(=O)N2OS(=O)(=O)O [form E, avibactam sodium]",temperature above which the form dehydrates to monohydrate form A,[1],above 60 °C
same,relative humidity above which the form is particularly stable,[2]; per WO 2011/042560 A1,> 70%
same,stability during long storage and at higher temperature,[2]; per WO 2011/042560 A1,tends to lose water and to hydrolyze
